Source: patent US20250288573A1 (H. LEE MOFFITT CANCER CENTER AND RESEARCH INSTITUTE, INC., priority 2018, published 2025)
Read-outs that look alike come from different tables or passages of the source.

Biological target: T1, CRBN (Homo sapiens, UniProt Q96SW2)
T1 construct: endogenous in cells; host or cells: primary human T cells / CD8+ T cells from peripheral blood
Experiment: Western blot for expression of CRBN relative to vinculin in human T cells (CRBN degradation)
Type: cell-based
Details: for remaining activity at 10 µM / remaining activity at 0.01 µM: read-out: Relative Density of CRBN (% of DMSO); for remaining activity at 0.01 µM: 24 h; for CRBN Degradation ** (WB): grade (+) to (++++) or words, key not given
Text: Bortez=bortezomib; MG132=proteasome inhibitor; MLN4924=NEDD8 inhibitor.
This assay is a standard Western blot assay for expression of CRBN relative to vinculin.
[…] 0.1 percent DMSO was used as a vehicle control.

T1 sequence (Q96SW2 whole entry): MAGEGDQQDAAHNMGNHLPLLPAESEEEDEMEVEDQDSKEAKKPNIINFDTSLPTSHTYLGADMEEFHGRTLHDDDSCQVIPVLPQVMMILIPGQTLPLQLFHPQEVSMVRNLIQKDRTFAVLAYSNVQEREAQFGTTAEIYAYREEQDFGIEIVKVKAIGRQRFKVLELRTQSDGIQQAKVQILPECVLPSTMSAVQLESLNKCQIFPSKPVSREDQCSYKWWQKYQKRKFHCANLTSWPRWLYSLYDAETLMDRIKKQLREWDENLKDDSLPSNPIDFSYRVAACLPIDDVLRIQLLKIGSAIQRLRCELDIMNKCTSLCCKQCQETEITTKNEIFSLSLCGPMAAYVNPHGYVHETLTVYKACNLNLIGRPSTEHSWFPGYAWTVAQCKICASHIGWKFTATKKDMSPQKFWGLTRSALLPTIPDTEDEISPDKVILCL

| Compound | remaining activity at 10 µM (10uM) [%] | remaining activity at 0.01 µM (10nM, human T cells, 24 hours) [%] | further results |
| --- | --- | --- | --- |
| Cc1nc2cccc(NC(=O)CCCCCCC(=O)Nc3cccc4nc(C)n(C5CCC(=O)NC5=O)c(=O)c34)c2c(=O)n1C1CCC(=O)NC1=O (centres unmarked) [MA10-077, N1,N8-bis(3-(2,6-dioxopiperidin-3-yl)-2-methyl-4-oxo-3,4-dihydroquinazolin-5-yl)octanediamide] | 74.3 | 139 |  |
| Cc1nc2cccc(NC(=O)CCCCCCCCC(=O)Nc3cccc4nc(C)n(C5CCC(=O)NC5=O)c(=O)c34)c2c(=O)n1C1CCC(=O)NC1=O (centres unmarked) [MA10-090, N1,N10-bis(3-(2,6-Dioxopiperidin-3-yl)-2-methyl-4-oxo-3,4-dihydroquinazolin-5-yl)decanediamide] | 82.2 | 132 |  |
| Cc1nc2cccc(NC(=O)CCCCC(=O)Nc3cccc4nc(C)n(C5CCC(=O)NC5=O)c(=O)c34)c2c(=O)n1C1CCC(=O)NC1=O (centres unmarked) [MA10-088, N1,N6-bis(3-(2,6-Dioxopiperidin-3-yl)-2-methyl-4-oxo-3,4-dihydroquinazolin-5-yl)adipamide] | 58.1 | 135 |  |
| O=C1CCC(N2Cc3c(CCCCCC(=O)Nc4cccc5c4CN(C4CCC(=O)NC4=O)C5=O)cccc3C2=O)C(=O)N1 (centres unmarked) [EC2-109, N,6-bis(2-(2,6-Dioxopiperidin-3-yl)-1-oxoisoindolin-4-yl)hexanamide] | 9.84 | 97.5 |  |
| Cc1nc2cccc(CCCOCCOCCCc3cccc4nc(C)n(C5CCC(=O)NC5=O)c(=O)c34)c2c(=O)n1C1CCC(=O)NC1=O (centres unmarked) [MA10-120, 3,3′-(((Ethane-1,2-diylbis(oxy))bis(propane-3,1-diyl))bis(2-methyl-4-oxoquinazoline-5,3(4H)-diyl))bis(piperidine-2,6-dione)] |  |  | remaining activity at 0.01 µM: 56.7%; remaining activity at 10 µM: 82.8% |
| Cc1nc2c(NCc3ccc(CNc4cccc5c(=O)n(C6CCC(=O)NC6=O)c(C)nc45)cc3)cccc2c(=O)n1C1CCC(=O)NC1=O (centres unmarked) [XS01-030, 3,3′-(((1,4-Phenylenebis(methylene))bis(azanediyl))bis(2-methyl-4-oxoquinazoline-8,3(4H)-diyl))bis(piperidine-2,6-dione)] | 93 | 12.1 |  |
| CN1C(=O)CCC(N2Cc3c(CCCOCCOCCCc4cccc5c4CN(C4CCC(=O)N(C)C4=O)C5=O)cccc3C2=O)C1=O (centres unmarked) [SM3-104, 3,3′-(((Ethane-1,2-diylbis(oxy))bis(propane-3,1-diyl))bis(1-oxoisoindoline-4,2-diyl))bis(1-methylpiperidine-2,6-dione)] |  | 92.1 |  |
| Cc1sc2c(c1C)C(c1ccc(Cl)cc1)=N[C@@H](CC(=O)NCCCCC(=O)Nc1cccc(C(=O)NC3CCC(=O)NC3=O)c1)c1nnc(C)n1-2 (some centres unmarked) [EC2-088] |  |  | CRBN Degradation (WB)/ IC50/DC50 Relative Density of CRBN (% of DMSO): value without qualifier (no concentration or unit printed): 43.73 ± 24.45 (1/25/19) |
| O=C1CCC(N2Cc3ccc(NC(=O)CCCCC(=O)Nc4ccc5c(c4)C(=O)N(C4CCC(=O)NC4=O)C5)cc3C2=O)C(=O)N1 (centres unmarked) [EC2-066] | 189 |  |  |
| Cc1nc2c(NC(=O)c3ccc(C(=O)Nc4cccc5c(=O)n(C6CCC(=O)NC6=O)c(C)nc45)cc3)cccc2c(=O)n1C1CCC(=O)NC1=O (centres unmarked) [XS01-059] | 356 | 69.2 | CRBN Degradation ** (WB): No Degradation |
| Cc1nc2cccc(NC(=O)CCCCCCCC(=O)Nc3cccc4nc(C)n(C5CCC(=O)NC5=O)c(=O)c34)c2c(=O)n1C1CCC(=O)NC1=O (centres unmarked) [MA10-086, N1,N9-bis(3-(2,6-Dioxopiperidin-3-yl)-2-methyl-4-oxo-3,4-dihydroquinazolin-5-yl)nonanediamide] | 71 | 138 |  |
| O=C1CCC(N2Cc3ccc(NC(=O)CCCCCCC(=O)Nc4ccc5c(c4)C(=O)N(C4CCC(=O)NC4=O)C5)cc3C2=O)C(=O)N1 (centres unmarked) [EC2-063, N^1,N^8-bis(2-(2,6-Dioxopiperidin-3-yl)-3-oxoisoindolin-5-yl)octanediamide] | 13.5 | 38.8 |  |
| Cc1nc2cccc(C#CCOCCOCCOCC#Cc3cccc4nc(C)n(C5CCC(=O)NC5=O)c(=O)c34)c2c(=O)n1C1CCC(=O)NC1=O (centres unmarked) [MA10-153, 3,3′-((((Oxybis(ethane-2,1-diyl))bis(oxy))bis(prop-1-yne-3,1-diyl))bis(2-methyl-4-oxoquinazoline-5,3(4H)-diyl))bis(piperidine-2,6-dione)] | 208 | 14.8 | CRBN Degradation ** (WB): No Degradation |
| Cc1nc2cccc(NC(=O)CCCCCC(=O)Nc3cccc4nc(C)n(C5CCC(=O)NC5=O)c(=O)c34)c2c(=O)n1C1CCC(=O)NC1=O (centres unmarked) [MA10-121, N1,N7-bis(3-(2,6-Dioxopiperidin-3-yl)-2-methyl-4-oxo-3,4-dihydroquinazolin-5-yl)heptanediamide] | 72.6 | 56.5 |  |
| Cc1nc2cccc(NCc3cccc(CNc4cccc5nc(C)n(C6CCC(=O)NC6=O)c(=O)c45)n3)c2c(=O)n1C1CCC(=O)NC1=O (centres unmarked) [MA10-126, 3,3′-(((Pyridine-2,6-diylbis(methylene))bis(azanediyl))bis(2-methyl-4-oxoquinazoline-5,3(4H)-diyl))bis(piperidine-2,6-dione)] | 61.1 | 54.2 |  |
| O=C1CC[C@H](N2Cc3c(CCCOCCOCCCc4cccc5c4CN([C@H]4CCC(=O)NC4=O)C5=O)cccc3C2=O)C(=O)N1 [XS01-011, (3S,3'S)-3,3′-(((Ethane-1,2-diylbisbis(oxy))bisbis(propane-3,1-diyl))bisbis(1-oxoisoindoline-4,2-diyl))bisbis(piperidine-2,6-dione)] | 38.1 | 3.42 |  |
| O=C1CCC(NC(=O)c2cccc(NC(=O)CCCCCCC(=O)Nc3cccc(C(=O)NC4CCC(=O)NC4=O)c3)c2)C(=O)N1 (centres unmarked) [XS01-050, N^1,N^8-Bis(3-((2,6-dioxopiperidin-3-yl)carbamoyl)phenyl)octanedimide] | 20 | 168 |  |

Second part, led by results:

| remaining activity at 10 µM (10uM) [%] | remaining activity at 0.01 µM (10nM, human T cells, 24 hours) [%] | Compound | further results |
| --- | --- | --- | --- |
| 98.3 | 199 | Cc1nc2cccc(NC(=O)CCc3cn(CC(=O)Nc4cccc5nc(C)n(C6CCC(=O)NC6=O)c(=O)c45)nn3)c2c(=O)n1C1CCC(=O)NC1=O (centres unmarked) [XS01-132, N-(3-(2,6-dioxopiperidin-3-yl)-2-methyl-4-oxo-3,4-dihydroquinazolin-5-yl)-3-(1-(2-((3-(2,6-dioxopiperidin-3-yl)-2-methyl-4-oxo-3,4-dihydroquinazolin-5-yl)amino)-2-oxoethyl)-1H-1,2,3-triazol-4-yl)propanamide] |  |
| 151 | 243 | Cc1nc2cccc(NC(=O)Cn3cc(CCCC(=O)Nc4cccc5c4CN(C4CCC(=O)NC4=O)C5=O)nn3)c2c(=O)n1C1CCC(=O)NC1=O (centres unmarked) [XS01-123, N-(2-(2,6-Dioxopiperidin-3-yl)-1-oxoisoindolin-4-yl)-4-(1-(2-((3-(2,6-dioxopiperidin-3-yl)-2-methyl-4-oxo-3,4-dihydroquinazolin-5-yl)amino)-2-oxoethyl)-1H-1,2,3-triazol-4-yl)butanamide] |  |
| 157 |  | O=C1C[C@H](NC(=O)c2cccc(NC(=O)CCCCCCC(=O)Nc3cccc(C(=O)N[C@H]4CC(=O)NC4=O)c3)c2)C(=O)N1 [XS01-066, N^1,N^8-Bis(3-(((S)-2,5-dioxopyrrolidin-3-yl)carbamoyl)phenyl)octanediamide] |  |
| 132 | 213 | O=C1CCC(N2Cc3c(NC(=O)CCCc4cn(CC(=O)Nc5cccc6c5CN(C5CCC(=O)NC5=O)C6=O)nn4)cccc3C2=O)C(=O)N1 (centres unmarked) [XS01-109, N-(2-(2,6-Dioxopiperidin-3-yl)-1-oxoisoindolin-4-yl)-4-(1-(2-((2-(2,6-dioxopiperidin-3-yl)-1-oxoisoindolin-4-yl)amino)-2-oxoethyl)-1H-1,2,3-triazol-4-yl)butanamide] |  |
| 153 | 196 | O=C1CCC(N2Cc3c(NC(=O)CCc4cn(CC(=O)Nc5cccc6c5C(=O)N(C5CCC(=O)NC5=O)C6=O)nn4)cccc3C2=O)C(=O)N1 (centres unmarked) [XS01-125, 3-(1-(2-((2-(2,6-Dioxopiperidin-3-yl)-1,3-dioxoisoindolin-4-yl)amino)-2-oxoethyl)-1H-1,2,3-triazol-4-yl)-N-(2-(2,6-dioxopiperidin-3-yl)-1-oxoisoindolin-4-yl)propanamide] |  |
| 151 | 255 | O=C1CCC(N2Cc3c(NC(=O)CCCc4cn(CC(=O)Nc5cccc6c5C(=O)N(C5CCC(=O)NC5=O)C6=O)nn4)cccc3C2=O)C(=O)N1 (centres unmarked) [XS01-122, 4-(1-(2-((2-(2,6-Dioxopiperidin-3-yl)-1,3-dioxoisoindolin-4-yl)amino)-2-oxoethyl)-1H-1,2,3-triazol-4-yl)-N-(2-(2,6-dioxopiperidin-3-yl)-1-oxoisoindolin-4-yl)butanamide] |  |
| 104 | 84.6 | O=C1CCC(NC(=O)CCCC(=O)NC2CCC(=O)NC2=O)C(=O)N1 (centres unmarked) [XS01-095, N^1,N^5-Bis(2,6-dioxopiperidin-3-yl)glutaramide] |  |
| 131 | 207 | O=C1CCC(N2C(=O)c3cccc(NC(=O)CCc4cn(CC(=O)Nc5cccc6c5C(=O)N(C5CCC(=O)NC5=O)C6=O)nn4)c3C2=O)C(=O)N1 (centres unmarked) [XS01-126, N-(2-(2,6-Dioxopiperidin-3-yl)-1,3-dioxoisoindolin-4-yl)-3-(1-(2-((2-(2,6-dioxopiperidin-3-yl)-1,3-dioxoisoindolin-4-yl)amino)-2-oxoethyl)-1H-1,2,3-triazol-4-yl)propanamide] |  |
| 106 | 225 | O=C1CCC(N2Cc3c(NC(=O)CCc4cn(CC(=O)Nc5cccc6c5CN(C5CCC(=O)NC5=O)C6=O)nn4)cccc3C2=O)C(=O)N1 (centres unmarked) [XS01-113, N-(2-(2,6-dioxopiperidin-3-yl)-1-oxoisoindolin-4-yl)-3-(1-(2-((2-(2,6-dioxopiperidin-3-yl)-1-oxoisoindolin-4-yl)amino)-2-oxoethyl)-1H-1,2,3-triazol-4-yl)propanamide] |  |
